The results in this text go back to patent publication US8937194B2, “Topical compositions containing nitro fatty acids” (Nitromega Corp., priority 2008, dated 2015).

The nature of this data set: Stability of 10-nitro oleic acid (OA-NO2) in olive oil, quantified by LC-MS/MS. The class given is physicochemical. How it is done: Stability experiments were conducted using Bertolli extra light olive oil. Methanol soluble impurities were extracted twice. […] Olive oil is highly hydrophobic and liposomes have been previously shown to stabilize nitrated linoleic acid. The composition of Olive oil used was as follows: total fat: 14 g, saturated fat: 9%, polyunsaturated fat: 9%, Monounsaturated Fat: 45%
First, methanol-soluble substances were extracted from olive oil by applying 6 volumes of methanol per volume of oil and vortexing for a minute. The triglyceride containing fraction was obtained and the extraction was repeated. The remaining triglycerides were dried under vacuum to eliminate remaining organic solvents. […]
At the different time points, aliquot by triplicate were obtained, fatty acids were extracted from the triglyceride matrix using a 4:1 ratio of methanol:triglyceride, diluted to a final concentration of 100 nM and quantified using liquid chromatography coupled to mass spectrometry. […] The nitrated oleic acid was detected using the multiple reaction monitoring (MRM) process in the negative ion mode performed on a 4000 QTRAP triple quadrupole (Applied Biosystems). […] The peak areas were integrated using Analyst 1.5.1 software (Applied Biosystems) and external standard curves were performed for quantification purposes.

For the compound `CCCCCCCC/C(=C\CCCCCCCC(=O)O)[N+](=O)[O-]` [10-nitro oleic acid], where the note is “750 μM in extracted Bertolli extra light olive oil, stored in the dark at 22° C., 37° C. and 50° C., periods of up to 20 days (FIG. 1: 19 days)”, the “stability in olive oil (percentage of the starting concentration)” value was “stable”. Further, where the note is “750 μM in olive oil, samples incubated at 22° C., 37° C., after 135 days”, the “decrease in stability after 135 days” value is on record as “about 15%”.
